Assay [1] deals with VEGFR2 kinase (KDR enzyme) (Homo sapiens, UniProt P35968). As to the kind of experiment: In vitro inhibitory effect on VEGFR2 kinase (ADP-Glo enzymatic experiment). In kind it is biochemical. The conditions noted are these: read-out: IC50 (nM) for inhibition of VEFGR2 enzyme. The method, then: The VEGFR2 kinase assay kit is intended for measuring VEGFR2 kinase activity using Kinase-Glo®MAX as a detection reagent, and compound screening and analysis were conducted using the IC50 value of the compound as an indicator.
Sequence of VEGFR2 kinase (KDR enzyme) (P35968 20-1356, species assumed): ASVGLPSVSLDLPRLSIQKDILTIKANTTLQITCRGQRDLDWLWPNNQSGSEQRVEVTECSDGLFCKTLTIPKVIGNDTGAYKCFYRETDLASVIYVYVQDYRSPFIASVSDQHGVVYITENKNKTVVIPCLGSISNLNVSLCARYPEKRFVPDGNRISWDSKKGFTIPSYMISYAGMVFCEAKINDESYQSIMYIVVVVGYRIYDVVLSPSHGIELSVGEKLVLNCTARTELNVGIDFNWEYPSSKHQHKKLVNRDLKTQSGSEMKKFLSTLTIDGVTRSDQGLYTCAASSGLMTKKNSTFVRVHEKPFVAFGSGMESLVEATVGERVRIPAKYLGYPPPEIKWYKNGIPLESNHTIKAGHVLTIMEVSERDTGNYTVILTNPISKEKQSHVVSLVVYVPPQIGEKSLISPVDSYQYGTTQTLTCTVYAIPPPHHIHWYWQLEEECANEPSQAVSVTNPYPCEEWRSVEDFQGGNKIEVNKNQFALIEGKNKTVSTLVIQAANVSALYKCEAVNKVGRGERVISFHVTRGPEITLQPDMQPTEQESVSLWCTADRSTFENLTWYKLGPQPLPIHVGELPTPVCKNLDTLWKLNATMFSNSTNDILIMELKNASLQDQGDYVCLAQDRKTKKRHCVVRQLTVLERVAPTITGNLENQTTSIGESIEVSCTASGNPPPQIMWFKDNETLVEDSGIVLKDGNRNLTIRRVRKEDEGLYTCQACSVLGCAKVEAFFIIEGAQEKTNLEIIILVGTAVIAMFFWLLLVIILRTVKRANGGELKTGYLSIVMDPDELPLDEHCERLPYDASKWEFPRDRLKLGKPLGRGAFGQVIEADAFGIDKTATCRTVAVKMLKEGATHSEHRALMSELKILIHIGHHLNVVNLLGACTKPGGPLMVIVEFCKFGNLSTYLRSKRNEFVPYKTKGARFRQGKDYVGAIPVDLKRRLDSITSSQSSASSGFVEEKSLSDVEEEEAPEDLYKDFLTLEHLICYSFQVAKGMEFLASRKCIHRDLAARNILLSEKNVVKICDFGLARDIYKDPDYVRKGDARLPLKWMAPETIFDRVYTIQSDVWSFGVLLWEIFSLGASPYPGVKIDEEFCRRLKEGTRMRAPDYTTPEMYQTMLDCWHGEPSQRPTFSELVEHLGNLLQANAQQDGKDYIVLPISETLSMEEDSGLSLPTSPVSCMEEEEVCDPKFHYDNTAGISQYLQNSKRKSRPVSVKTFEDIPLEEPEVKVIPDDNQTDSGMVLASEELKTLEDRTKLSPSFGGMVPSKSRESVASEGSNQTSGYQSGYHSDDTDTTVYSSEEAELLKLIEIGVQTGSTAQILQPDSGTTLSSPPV
The ADP-GLO™ Kinase Assay is an analytical reaction in which a luminescent kinase is used to determine the adenosine diphosphate formed by the kinase; ADP is converted to ATP, i.e., an optical signal is generated by Ultra-Glo™ luciferase. The optical signal is positively correlated with ADP quantity and kinase activity. This assay is ideal for determining the activity of the compound, making it ideal for primary screening and kinase selectivity analysis. The ADP-Glo™ Kinase Assay can be used to monitor the activity of virtually any ADP-producing enzyme such as a kinase orATPase: • 1) The enzyme, substrate, ATP and inhibitor were diluted in a kinase buffer; • 2) 384-well plate: 1 μL of inhibitor or (5% dimethyl sulfoxide solution), 2 μL of KDR enzyme, 2 μL of matrix/ATP mixture; • 3) the mixture was incubated at room temperature for 60 minutes; • 4) 5 μL of ADP-GLO™ reagent was added; • 5) the mixture was incubated for 40 minutes at room temperature; • 6) 10 μL of kinase detection reagent was added; • 7) the mixture was incubated at room temperature for 30 minutes; • 8) the luminescence was recorded (integration time 0.5-1 sec). The data was shown in relative light units (rlu), which was directly related to the amount of […]. There was correlation between the percent of the conversion from ATP to ADP for each kinase amount and the corresponding signal-to-background ratio. • 9) Data analysis: (a) KDR enzyme was titrated with 50 μM of ATP, and the luminescent signal produced by KDR enzyme was shown; (b) staurosporine dose response was generated with 1.5 ng of KDR to determine the IC50 value of the inhibitor.
(In general: ADP-Glo turns the ADP formed in a reaction into a luminescent signal.)

For another assay, the target named is T1, Syk kinase (Homo sapiens, UniProt P43405).
T1 construct: purchased Invitrogen PV3857
As to the kind of experiment: In vitro inhibitory effect on Syk kinase (HTRF enzymatic experiment). In kind it is biochemical. The settings on record: ATP 2 μM, read-out: IC50 (nM) for inhibition of Syk enzyme. The source says: The interaction between the substrate and the enzyme was detected by HTRF, using the IC50 value of the compound as an indicator to evaluate the inhibitory effect of the compound on Syk kinase.
• Syk kinase (Invitrogen, PV3857) • DTT (Sigma #43815) • ATP (Sigma #A7699) • MgCl2 (Sigma #63020) • MnCl2 (Sigma #M1787) • EDTA (Invitrogen #15575-020) • HEPES Buffer (Invitrogen #15630-080) • HTRF® KinEASE™ TK (Cisbio #62TKOPEC, 20000 tests) • Low volume, 384-well, white polystyrene plate (Greiner #784075) • 384 Well Microplates (Greiner #781946) • Centrifuge (Eppendorf #5810R) • Pipette (Eppendorf) • Pipette (Greiner) • Pipette gun (Eppendorf) • Mutidorp Pipette • POD 810 Plate Assembler Automatic Microplate Pretreatment System • Envision Reader • Experimental Steps and Methods: • a) Compound dilution and plate-making: • 1) The compound powder was weighed, dissolved in a certain amount of DMSO at an initial concentration of 10 mM. • 2) The compound was diluted to a concentration of 0.74 mM, and plated with POD18, 135 nL per well, the starting compound concentration was 10 μM, and there were 11 concentration points, with 3-fold descending serial dilutions. • b) Enzyme-substrate reaction stage: • 1) Preparation and dilution of the experimental buffer: the 5×HTRF Buffer in the kit was diluted to 1×, and specified amounts of DTT and MgCl2 solutions were added for use. • 2) SYK enzyme reaction solution was prepared with 1×HTRF Buffer so that the final reaction concentration of SYK kinase was 0.0156 ng/μL. • 3) TK-Substrate-biotin/ATP mixture was prepared so that the final substrate concentration was controlled at 0.2 μM. ATP concentration was controlled at 2 μM. • 4) The solution and the mixture were added with a Mutidorp pipette, SYK enzyme solution and TK-Substrate-biotin/ATP mixture were each added 5 μL per well, and incubated with 23 solution for 1 hour. • c) Detection stage: • 1) 13.33 mL of ethylenediaminetetraacetic acid solution was added to the detection buffer of the kit, and specified amounts of Eu-labeled antibody and XL-665 were added to prepare the detection solution. • 2) The solution was added with a Mutidorp pipette, 10 μL of detection solution per well, and incubated with 23 solution for 1 hour. The reaction of the enzyme and substrate mixture was stopped. • 3) After centrifugation, the reading was obtained on Envision. • d) Data analyzation: the data was analyzed using XL-Fit and the IC50 value of the compound was calculated.

Structures are written as SMILES.

By IC50 is commonly meant the point on the concentration scale where inhibition reaches its midpoint. Turning to `CC1(O)CCN(c2ccc(Nc3nc4ccc(-c5cn[nH]c5)cc4n4ccnc34)cc2)CC1` [Compound 8], the IC50 in assay [1] was found to be 31 nM; at Syk kinase it was 30 nM.
As for `c1cn2c(n1)c(Nc1ccc(N3CCC4(CC3)COC4)cc1)nc1ccc(-c3cn[nH]c3)cc12` [Compound 12], the figures for the half-maximal inhibitory concentration (IC50) (in assay [1]; at Syk kinase) were 88 nM and 315 nM, respectively.
For the compound `c1cn2c(n1)c(Nc1ccc(N3CCN(C4COC4)CC3)cc1)nc1ccc(-c3cn[nH]c3)cc12` [Compound 5], the half-maximal inhibitory concentration (IC50) in assay [1] came to 19 nM; on Syk kinase it was 17 nM.
Regarding `c1cn2c(n1)c(Nc1ccc(C3CCOCC3)cc1)nc1ccc(-c3cn[nH]c3)cc12` [Compound 11], the IC50 in assay [1] turned out to be 56 nM; on Syk kinase, 34 nM.
Consider `CN1CCN(c2ccc(Nc3nc4ccc(-c5cn[nH]c5)cc4n4ccnc34)cc2)CC1` [Compound 6], for which the 50% inhibitory concentration (IC50) came to 44 nM in assay [1] and 50 nM on Syk kinase.
As for `N=S1(=O)CCN(c2ccc(Nc3nc4ccc(-c5cn[nH]c5)cc4n4ccnc34)cc2)CC1` [Compound 9], the half-maximal inhibitory concentration (IC50) in assay [1] was 22 nM; at Syk kinase, 23 nM.
`CC(=O)N=S1(=O)CCN(c2ccc(Nc3nc4ccc(-c5cn[nH]c5)cc4n4ccnc34)cc2)CC1` [Compound 10]: the IC50 amounted to 41 nM in assay [1] and 11 nM on Syk kinase.
Consider `CN1CCCN(c2ccc(Nc3nc4ccc(-c5cn[nH]c5)cc4n4ccnc34)cc2)CC1` [Compound 7], for which the IC50 in assay [1] was 42 nM; at Syk kinase it was 34 nM.
`c1cn2c(n1)c(Nc1ccc(N3CCOCC3)cc1)nc1ccc(-c3cc[nH]n3)cc12` [Compound 2]: the IC50 in assay [1] stood at 31 nM; at Syk kinase, 125 nM.

The values above are taken from patent publication US12637469B2, “1H-pyrazole derivative and application thereof as dual target inhibitor of Syk and VEGFR2” (Ocumension Therapeutics (Suzhou) Co., Ltd., priority 2020, dated 2026).
